# Values quoted from earlier work as cited in patent US20260232611A1, “USE OF (S)-3-AMINO-4-(DIFLUOROMETHYLENYL) CYCLOPENT-1-ENE-1-CARBOXYLIC ACID IN THE TREATMENT OF RHEUMATOID ARTHRITIS” (Ovid Therapeutics Inc., priority 2023, published 2026).
# How the values were obtained:
# [1] = test system: aspartate aminotransferase (Asp-AT); settings: unlike vigabatrin
# [2] = test system: alanine aminotransferase (Ala-AT); settings: unlike vigabatrin
smiles,measurement,setting,value
"N[C@H]1C[C@@H](C(=O)O)CC1=C(F)F [CPP-115, (1S,3S)-3-amino+difluoromethylenyl-1-cyclopentanoic acid]",inactivation or inhibition of off-target enzyme,[1],not to inactivate or inhibit
same,inactivation or inhibition of off-target enzyme,[2],not to inactivate or inhibit
